{"source": "paper PMC4728661", "about": "“Cancer Prevention and Health Benefices of Traditionally Consumed Borago officinalis Plants” (Nutrients, 2016)", "key": {"D. melanogaster [1]": {"test_system": "D. melanogaster", "assay": "Toxicity: survival of Drosophila larvae to emerged adults, simple and combined (H2O2) treatments", "assay_type": "in vivo, Drosophila melanogaster", "protocol": "Optimal fertile flies were anesthetized under CO2 narcotisation for cross selection and then placed in new vials for fertilization. After that, hybrid eggs from crossing were collected over an 8 h period and emerged larvae (72 ± 4 h later) were cleaned up for a few seconds in sterile distilled water to remove feeding medium rests. […] Bioactive compound concentrations were chosen on the basis of their known content in B. officinalis species. […] Larvae were fed on these media until pupation (about 48 h). After emergence, resulting adult flies were sacrificed under CO2 narcotisation and stored in a 70% ethanol solution in sterile water. […] The determination of Toxicity (T) of treatments in D. melanogaster was performed following this formula [39]: T = (N° of emerging individuals in treatment/N° of emerging individuals in the negative control) × 100(1) Differences in D. melanogaster survival between treatments at each concentration with respect to negative control were analyzed with a Chi-square test. This procedure was also performed for the analysis of each simple treatment with their correspondent combined treatment."}, "HL-60 cells": {"test_system": "HL-60 cells", "assay": "Cytotoxicity: HL-60 growth/viability, Trypan Blue dye exclusion", "assay_type": "cell-based, human", "conditions": "0.03–1 mM, 72 h", "protocol": "The human acute promyelocytic leukemia cell line HL-60 was routinely grown in suspension in RPMI medium (Invitrogen, Madrid, Spain) containing glutamine ([…], Sigma-Aldrich, St. Louis, MO, USA), antibiotics (100IU penicillin mL^−1 and 100 μg streptomycin mL^−1, Sigma-Aldrich) and supplemented with 10% heat-inactivated foetal bovine serum (Linus, Cultek, Madrid, Spain) and placed in an incubator (Shel Lab, Cornelious, OR, USA) with a 5% CO2 humidified atmosphere at 37 °C [36]. HL-60 cells were subcultured every 2–3 days to maintain logarithmic growth and they were allowed to grow for 48 h before use. Cultures were plated at a density of 12.5 × 10^4 cells mL^−1 in 40 mL culture flasks (25 cm^2). Cytotoxic activity was measured as growing inhibition or decreased viability on HL-60 cells following a previous protocol modified by us. […] Cells were counted after 72 h treatment. Tested concentrations were calculated according to those used for in vivo assays to equal the range of tested doses. Untreated cultures were used as negative control. Cell viability was determined by the Trypan Blue dye exclusion test. Cells were stained with an equal volume of Trypan Blue commercial solution (Sigma-Aldrich) and counted using a hemocytometer at room temperature under a light inverted microscope (AE30/31, Motic, Barcelona, Spain). Cytotoxic effect evaluation was determined after each culture incubation period, establishing a growth curve and determining IC50 values by regression analysis of the curves. Viability estimated regressions of leukemia cells are presented as a survival percentage with respect to controls at 72 h growth and plotted as mean viability ± standard error of at least three independent replicas for each treatment and concentration."}, "D. melanogaster [2]": {"test_system": "D. melanogaster", "assay": "Antigenotoxicity: SMART, combined treatments with H2O2 0.12 M", "assay_type": "in vivo, Drosophila melanogaster", "protocol": "The D. melanogaster system was selected for the determination of the safety of B. officinalis consumption as a well-recognized method to analyze vegetable complex mixtures using SMART [31, 32]. This test was used in order to evaluate the genotoxic and antigenotoxic activity of B. officinalis leaves and petioles as well as their selected bioactive compounds [33]. This activity was measured by direct visualization of the occurrence of recessive mutations in the wing hairs of two different D. melanogaster strains. Flies from experiments carried these visible wing genetic markers: the flare (flr) strain […]) TM3, Bd^s and the multiple wing-hair (mwh) strain […] [35]. The marker flare (flr^3, 3_38.3) produces individual malformed hairs and the marker multiple wing hairs (mwh, 3_0.3) produces multiple hairs per cell. Larvae used in treatments come from two types of crosses: the standard cross with flr^3/TM3, Bd^S females mated to […] and the reciprocal cross. Optimal fertile flies were anesthetized under CO2 narcotisation for cross selection and then placed in new vials for fertilization. After that, hybrid eggs from crossing were collected over an 8 h period and emerged larvae (72 ± 4 h later) were cleaned up for a few seconds in sterile distilled water to remove feeding medium rests. […] Bioactive compound concentrations were chosen on the basis of their known content in B. officinalis species. […] Larvae were fed on these media until pupation (about 48 h). After emergence, resulting adult flies were sacrificed under CO2 narcotisation and stored in a 70% ethanol solution in sterile water. […] For the evaluation of genotoxic effects, the frequencies of spots per fly of each treated series were compared to the concurrent negative control for each class of mutational clone as well as between simple and combined treatments for the same concentration comparisons. […] A multiple-decision procedure was used to categorize results as positive, inconclusive or negative. Inconclusive and positive results were evaluated by the non-parametric U test of Mann, Whitney and Wilcoxon. The inhibition percentage (IP) of genotoxicity was calculated from the total frequencies of spots per wing, following this formula [42]: IP = (genotoxin alone - sample + genotoxin) × 100/(genotoxin alone)(2) Significant differences of IP for each treatment respect to the positive control were analyzed with a Chi-square test."}, "[3]": {"conditions": "combined with 0.12 M H2O2, 0.15 mM SI"}, "[4]": {"conditions": "combined with 0.12 M H2O2, 0.29 mM SI"}, "[5]": {"conditions": "combined with 0.12 M H2O2, 0.58 mM SI"}, "[6]": {"conditions": "combined with 0.12 M H2O2, 1.16 mM SI"}}, "note": "Marks after values point to notes of the source that are not given here."}
{"smiles": "COc1cc(/C=C/C(=O)O)cc(OC)c1O", "note": "[SI, sinapic acid]", "values": [{"measurement": "Survival", "setting": "D. melanogaster [1]; [3]", "result": "64 *^,‡ %"}, {"measurement": "Survival", "setting": "D. melanogaster [1]; [4]", "result": "58.89 * %"}, {"measurement": "Survival", "setting": "D. melanogaster [1]; [5]", "result": "39.78 *^,‡ %"}, {"measurement": "Survival", "setting": "D. melanogaster [1]; [6]", "result": "43.56 *^,‡ %"}, {"measurement": "Survival", "setting": "D. melanogaster [1]; simple treatment, 0.15 mM SI", "result": "78.22 * %"}, {"measurement": "Survival", "setting": "D. melanogaster [1]; simple treatment, 0.29 mM SI", "result": "60.22 * %"}, {"measurement": "Survival", "setting": "D. melanogaster [1]; simple treatment, 0.58 mM SI", "result": "69.33 * %"}, {"measurement": "Survival", "setting": "D. melanogaster [1]; simple treatment, 1.16 mM SI", "result": "55.11 * %"}, {"measurement": "Effect on HL-60 growth", "setting": "HL-60 cells", "result": "did not affect HL-60 growth"}, {"measurement": "Diagnosis, Small Single Spots 1–2 Cells m = 2", "setting": "D. melanogaster [2]; [3]", "result": "−"}, {"measurement": "Diagnosis, Total Spots m = 2", "setting": "D. melanogaster [2]; [3]", "result": "−"}, {"measurement": "Mutation rate, Large Single Spots >2 Cells m = 5", "setting": "D. melanogaster [2]; [3]", "result": 0, "unit": "spots/wing"}, {"measurement": "Mutation rate, Small Single Spots 1–2 Cells m = 2", "setting": "D. melanogaster [2]; [3]", "result": "0.42 (5) spots/wing"}, {"measurement": "Mutation rate, Total Spots m = 2", "setting": "D. melanogaster [2]; [3]", "result": "0.42 (5) spots/wing"}, {"measurement": "Mutation rate, Twin Spots m = 5", "setting": "D. melanogaster [2]; [3]", "result": 0, "unit": "spots/wing"}, {"measurement": "Diagnosis, Small Single Spots 1–2 Cells m = 2", "setting": "D. melanogaster [2]; [4]", "result": "−"}, {"measurement": "Diagnosis, Total Spots m = 2", "setting": "D. melanogaster [2]; [4]", "result": "−"}, {"measurement": "Mutation rate, Large Single Spots >2 Cells m = 5", "setting": "D. melanogaster [2]; [4]", "result": 0, "unit": "spots/wing"}, {"measurement": "Mutation rate, Small Single Spots 1–2 Cells m = 2", "setting": "D. melanogaster [2]; [4]", "result": "0.25 (2) spots/wing"}, {"measurement": "Mutation rate, Total Spots m = 2", "setting": "D. melanogaster [2]; [4]", "result": "0.25 (2) spots/wing"}, {"measurement": "Mutation rate, Twin Spots m = 5", "setting": "D. melanogaster [2]; [4]", "result": 0, "unit": "spots/wing"}, {"measurement": "Diagnosis, Large Single Spots >2 Cells m = 5", "setting": "D. melanogaster [2]; [5]", "result": "−"}, {"measurement": "Diagnosis, Small Single Spots 1–2 Cells m = 2", "setting": "D. melanogaster [2]; [5]", "result": "−"}, {"measurement": "Diagnosis, Total Spots m = 2", "setting": "D. melanogaster [2]; [5]", "result": "−"}, {"measurement": "Diagnosis, Twin Spots m = 5", "setting": "D. melanogaster [2]; [5]", "result": "−"}, {"measurement": "Mutation rate, Large Single Spots >2 Cells m = 5", "setting": "D. melanogaster [2]; [5]", "result": "0.09 (2) spots/wing"}, {"measurement": "Mutation rate, Small Single Spots 1–2 Cells m = 2", "setting": "D. melanogaster [2]; [5]", "result": "0.27 (6) spots/wing"}, {"measurement": "Mutation rate, Total Spots m = 2", "setting": "D. melanogaster [2]; [5]", "result": "0.41 (9) spots/wing"}, {"measurement": "Mutation rate, Twin Spots m = 5", "setting": "D. melanogaster [2]; [5]", "result": "0.05 (1) spots/wing"}, {"measurement": "Diagnosis, Large Single Spots >2 Cells m = 5", "setting": "D. melanogaster [2]; [6]", "result": "−"}, {"measurement": "Diagnosis, Small Single Spots 1–2 Cells m = 2", "setting": "D. melanogaster [2]; [6]", "result": "−"}, {"measurement": "Diagnosis, Total Spots m = 2", "setting": "D. melanogaster [2]; [6]", "result": "−"}, {"measurement": "Mutation rate, Large Single Spots >2 Cells m = 5", "setting": "D. melanogaster [2]; [6]", "result": "0.04 (1) spots/wing"}, {"measurement": "Mutation rate, Small Single Spots 1–2 Cells m = 2", "setting": "D. melanogaster [2]; [6]", "result": "0.25 (7) spots/wing"}, {"measurement": "Mutation rate, Total Spots m = 2", "setting": "D. melanogaster [2]; [6]", "result": "0.29 (8) spots/wing"}, {"measurement": "Mutation rate, Twin Spots m = 5", "setting": "D. melanogaster [2]; [6]", "result": 0, "unit": "spots/wing"}]}
